Consider 14 compounds from PubChem BioAssay (NCI).

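A five-concentration, 48-hour dose response in 96-well plates underlies each endpoint, interpolated linearly between surrounding concentrations. Abbreviation: GI50, concentration required for 50% inhibition of growth. TGI denotes the concentration required for complete inhibition of growth.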 Where only a bound is given, the exact number is not on record here.

Some test systems named below: DU-145 prostate; MALME-3M melanoma; IGROV1 ovarian; SNB-75 CNS; KM12 colon; SK-MEL-2 melanoma; OVCAR-8 ovarian; M14 melanoma; ACHN renal; SK-OV-3 ovarian.
Common to all, as to assay: DTP human tumour cell line panel, 48 h

On to `COc1ccc(-c2nn3ncccc3c2-c2ccnc(Nc3ccc4c(c3)OCCO4)n2)cc1`, for which the GI50 with DU-145 prostate was 8.19 µM; in the experiment with MALME-3M melanoma, 12.5 µM; in the experiment with IGROV1 ovarian, 2.17 µM; in the experiment on SNB-75 CNS, above 13.9 µM; with KM12 colon, 5.99 µM; in the experiment on SK-MEL-2 melanoma, 7.39 µM. Also, the GI50 in the experiment with OVCAR-8 ovarian is 7.3 µM; in the experiment on M14 melanoma it was 8.55 µM; in the experiment on ACHN renal, 2.86 µM; in the experiment on SK-OV-3 ovarian, 4.08 µM. Moreover, the total growth inhibition concentration (TGI) in the experiment with DU-145 prostate was above 25 µM; in the experiment with MALME-3M melanoma, above 25 µM; in the experiment with IGROV1 ovarian, above 19.6 µM; in the experiment on SNB-75 CNS, above 25 µM; in the experiment with KM12 colon, above 25 µM; in the experiment with SK-MEL-2 melanoma it was above 21 µM. The TGI with OVCAR-8 ovarian was above 25 µM; in the experiment on M14 melanoma it was above 25 µM; in the experiment on ACHN renal it was above 25 µM; with SK-OV-3 ovarian, above 20.8 µM.
`CCOc1ccc(C(C)=O)cc1NC(=O)c1cccc(-c2nnn(CC)n2)c1`: the GI50 with DU-145 prostate is 1.07 µM; in the experiment on MALME-3M melanoma it was 11.4 µM; in the experiment with IGROV1 ovarian, 5.7 µM; in the experiment with SNB-75 CNS, 0.209 µM; with SK-MEL-2 melanoma, 0.44 µM; in the experiment on OVCAR-8 ovarian, 1.29 µM. Moreover, the 50% growth inhibitory concentration (GI50) was 0.396 µM in the experiment on M14 melanoma, 0.748 µM in the experiment on ACHN renal and 0.689 µM in the experiment on SK-OV-3 ovarian. Further, the TGI was above 100 µM in the experiment on DU-145 prostate; 63.9 µM in the experiment on MALME-3M melanoma; above 100 µM in the experiment on IGROV1 ovarian; 12.7 µM in the experiment with SNB-75 CNS; 24 µM in the experiment with SK-MEL-2 melanoma; above 100 µM with OVCAR-8 ovarian. The figures for the TGI in the experiment on M14 melanoma, with ACHN renal and in the experiment on SK-OV-3 ovarian were above 100 µM, 70.3 µM and 24.8 µM, respectively.
In the case of `CN(C)CCCCCNc1c2ccccc2nc2cccc([N+](=O)[O-])c12`, the TGI in the experiment with DU-145 prostate was determined as 0.00346 µM; in the experiment on MALME-3M melanoma, 0.00506 µM; in the experiment with IGROV1 ovarian it was 0.00655 µM; in the experiment on SNB-75 CNS, 0.00534 µM; in the experiment with KM12 colon, 0.0725 µM; in the experiment with SK-MEL-2 melanoma it was 0.00257 µM. Further, the TGI in the experiment on M14 melanoma was 0.00312 µM; in the experiment on ACHN renal it was 0.00325 µM; in the experiment on SK-OV-3 ovarian, above 0.0245 µM. Besides, the GI50 is 0.00621 µM with IGROV1 ovarian and 0.00374 µM in the experiment with ACHN renal.
Regarding `CCN(CC)c1ccc2nc3ccc(N=Nc4ccc(O)cc4)cc3[n+](-c3ccccc3)c2c1`, the GI50 in the experiment on DU-145 prostate was 4.68 µM; in the experiment on SNB-75 CNS, 10 µM; in the experiment on KM12 colon, 3.7 µM; with SK-MEL-2 melanoma it was 2.65 µM; in the experiment with OVCAR-8 ovarian, 7.42 µM; in the experiment with M14 melanoma it was 2.29 µM. The GI50 with ACHN renal was 4.1 µM; in the experiment with SK-OV-3 ovarian it was 35.7 µM. The TGI in the experiment on DU-145 prostate was 16.7 µM; in the experiment on SNB-75 CNS it was 21.9 µM; in the experiment on KM12 colon it was 16.4 µM; with SK-MEL-2 melanoma, above 100 µM; in the experiment on OVCAR-8 ovarian, above 100 µM; in the experiment with M14 melanoma, 4.79 µM. In addition, the TGI in the experiment on ACHN renal is 21.1 µM; in the experiment with SK-OV-3 ovarian, above 100 µM.
Turning to `COc1cc(CN(c2ccc(C)cc2)C2OC(=O)c3ccccc32)cc(OC)c1OC` (configuration not stated), the GI50 in the experiment on DU-145 prostate was 0.491 µM; with IGROV1 ovarian, 1.29 µM; with SNB-75 CNS it was 0.285 µM; in the experiment on KM12 colon, 0.445 µM; in the experiment on SK-MEL-2 melanoma it was 0.487 µM; with M14 melanoma, 0.43 µM. Moreover, the GI50 was 3.21 µM in the experiment with ACHN renal and 0.472 µM in the experiment with SK-OV-3 ovarian. Besides, the TGI was above 76.6 µM in the experiment on DU-145 prostate; above 100 µM in the experiment on MALME-3M melanoma; above 100 µM with IGROV1 ovarian; above 100 µM in the experiment on SNB-75 CNS; above 100 µM with KM12 colon; above 100 µM in the experiment on SK-MEL-2 melanoma. Moreover, the results for the TGI in the experiment with M14 melanoma, in the experiment with ACHN renal and in the experiment on SK-OV-3 ovarian were above 100 µM, above 100 µM and above 57.9 µM, respectively.
On to `O=C(Oc1ccccc1)C(Br)C(Br)c1ccccc1` (configuration not stated), for which the GI50 was 3.18 µM in the experiment with DU-145 prostate; 2 µM in the experiment with IGROV1 ovarian; 15.7 µM in the experiment with SNB-75 CNS; 1.93 µM in the experiment with KM12 colon; 16.1 µM in the experiment on SK-MEL-2 melanoma; 6.11 µM with OVCAR-8 ovarian. The GI50 in the experiment with M14 melanoma was 2.68 µM; in the experiment with ACHN renal, 2.06 µM; in the experiment with SK-OV-3 ovarian, 15.9 µM. For the same compound, the concentration for total growth inhibition (TGI) with DU-145 prostate was determined as 9.38 µM; in the experiment on IGROV1 ovarian, 3.96 µM; in the experiment on SNB-75 CNS, 30.1 µM; in the experiment on KM12 colon it was 3.75 µM; with SK-MEL-2 melanoma it was 33.1 µM; in the experiment on OVCAR-8 ovarian, 21.8 µM. The values for the concentration for total growth inhibition (TGI) in the experiment with M14 melanoma, in the experiment on ACHN renal and in the experiment with SK-OV-3 ovarian were 7.51 µM, 3.79 µM and 29.3 µM, respectively.
Regarding `Nc1nc2c(ccc3ccccc32)s1`, the GI50 in the experiment with DU-145 prostate is above 100 µM; with MALME-3M melanoma, 61.9 µM; in the experiment with IGROV1 ovarian it was above 100 µM; in the experiment with SNB-75 CNS, 36.8 µM; with KM12 colon, above 100 µM; with OVCAR-8 ovarian, above 100 µM. In addition, the GI50 in the experiment with M14 melanoma and with ACHN renal was above 100 µM each time. For the same compound, the TGI in the experiment on DU-145 prostate, in the experiment with MALME-3M melanoma, with IGROV1 ovarian, in the experiment with SNB-75 CNS, with KM12 colon and in the experiment with OVCAR-8 ovarian was above 100 µM in each case. In addition, the TGI in the experiment with M14 melanoma and in the experiment on ACHN renal was above 100 µM each time.
`COc1cc(NC(C)CCCNC(C)C)c2ncccc2c1OC` (configuration not stated): the GI50 with DU-145 prostate is above 100 µM; with MALME-3M melanoma it was 42.3 µM; with IGROV1 ovarian, 13.4 µM; in the experiment on SNB-75 CNS, 20.5 µM; with KM12 colon it was above 100 µM; in the experiment with OVCAR-8 ovarian, above 100 µM. The GI50 with M14 melanoma, in the experiment with ACHN renal and with SK-OV-3 ovarian was above 100 µM throughout. In addition, the TGI in the experiment on DU-145 prostate was above 100 µM; with MALME-3M melanoma, above 100 µM; with IGROV1 ovarian, 44.3 µM; in the experiment with SNB-75 CNS it was above 100 µM; in the experiment with KM12 colon it was above 100 µM; in the experiment on OVCAR-8 ovarian, above 100 µM. The TGI in the experiment on M14 melanoma, in the experiment on ACHN renal and with SK-OV-3 ovarian was above 100 µM throughout.
As to `COc1cccc(NC(=O)c2sc3nc4c(cc3c2N)C(O)CCC4)c1` (configuration not stated), the GI50 in the experiment with DU-145 prostate is 0.292 µM; in the experiment on IGROV1 ovarian, 0.383 µM; in the experiment on SNB-75 CNS it was 0.17 µM; with KM12 colon, 0.111 µM; in the experiment with SK-MEL-2 melanoma, 0.249 µM; in the experiment on OVCAR-8 ovarian it was 0.377 µM. In addition, the results for the GI50 in the experiment on M14 melanoma, in the experiment on ACHN renal and in the experiment on SK-OV-3 ovarian were 0.134 µM, 0.956 µM and 0.317 µM, respectively. The total growth inhibition concentration (TGI) was above 29.2 µM with DU-145 prostate; above 100 µM in the experiment on IGROV1 ovarian; 24.7 µM with SNB-75 CNS; above 100 µM in the experiment with KM12 colon; above 100 µM in the experiment on SK-MEL-2 melanoma; above 100 µM in the experiment on OVCAR-8 ovarian. In addition, the concentration for total growth inhibition (TGI) in the experiment with M14 melanoma was above 100 µM; in the experiment on ACHN renal it was above 100 µM; with SK-OV-3 ovarian, above 71.3 µM.
As for `NC(=S)N/N=C1/CN(c2ccc(Cl)c(Cl)c2)CC(=O)C1c1nc2ccccc2s1` (configuration not stated), the TGI in the experiment on MALME-3M melanoma, in the experiment on IGROV1 ovarian, in the experiment with SNB-75 CNS, in the experiment on KM12 colon, with SK-MEL-2 melanoma and in the experiment with OVCAR-8 ovarian was above 100 µM throughout. Further, the TGI with M14 melanoma, in the experiment on ACHN renal and in the experiment on SK-OV-3 ovarian was above 100 µM in each case.
Regarding `c1ccc(C2CC(c3ccc4ccccc4c3)=Nc3ccccc3S2)cc1` (configuration not stated), the TGI in the experiment with MALME-3M melanoma was 35.8 µM; in the experiment with IGROV1 ovarian, 49 µM; in the experiment on SNB-75 CNS, 40.4 µM; in the experiment on KM12 colon, 38.8 µM; in the experiment with SK-MEL-2 melanoma, 34.6 µM; in the experiment on OVCAR-8 ovarian it was 29.9 µM. Besides, the total growth inhibition concentration (TGI) with M14 melanoma came out at 31.2 µM; with ACHN renal, 31.2 µM; with SK-OV-3 ovarian, 80.9 µM.
Take `COc1ccc2c(c1)CCc1c(CO)c(COC(=O)NC(C)C)n(C)c1-2`: the concentration for total growth inhibition (TGI) was 16.2 µM in the experiment with MALME-3M melanoma; 48.3 µM with IGROV1 ovarian; above 27.3 µM in the experiment on SNB-75 CNS; 28.2 µM in the experiment on KM12 colon; 58 µM in the experiment with SK-MEL-2 melanoma; 21.2 µM with OVCAR-8 ovarian. Also, the TGI in the experiment on M14 melanoma came out at 33.8 µM; in the experiment with ACHN renal, 53.1 µM; in the experiment with SK-OV-3 ovarian, 73.3 µM.
As for `CC/C(Cc1ccccc1)=C(/c1ccc(O)cc1)c1ccc(OCCN2CCCC2)cc1`, the GI50 in the experiment on DU-145 prostate is 1.94 µM; with IGROV1 ovarian, 1.95 µM; with SNB-75 CNS, 1.31 µM; in the experiment on KM12 colon, 1.94 µM; in the experiment with SK-MEL-2 melanoma, 2.04 µM; with OVCAR-8 ovarian, 2.39 µM. Moreover, the results for the GI50 in the experiment on M14 melanoma, in the experiment with ACHN renal and with SK-OV-3 ovarian were 1.8 µM, 1.83 µM and 1.74 µM, respectively. Also, the TGI with DU-145 prostate was 3.88 µM; in the experiment with IGROV1 ovarian, 4.5 µM; in the experiment on SNB-75 CNS it was 2.98 µM; with KM12 colon, 3.74 µM; with SK-MEL-2 melanoma, 3.84 µM; in the experiment on OVCAR-8 ovarian, 5.39 µM. Also, the figures for the TGI in the experiment with M14 melanoma, with ACHN renal and in the experiment with SK-OV-3 ovarian were 3.64 µM, 3.39 µM and 3.32 µM, respectively.
`CC(C)(C)c1nc(-c2cccc(NS(=O)(=O)c3c(F)cccc3F)c2F)c(-c2ccnc(N)n2)s1`: the GI50 in the experiment with DU-145 prostate was 58.5 µM; in the experiment on IGROV1 ovarian, 56.1 µM; in the experiment with KM12 colon, 23.8 µM; with OVCAR-8 ovarian, 49.1 µM; in the experiment with ACHN renal it was 0.211 µM. The TGI was above 100 µM with DU-145 prostate; above 100 µM in the experiment on IGROV1 ovarian; above 92.4 µM with KM12 colon; above 100 µM with OVCAR-8 ovarian; above 100 µM with ACHN renal.
